Assay results from PubChem BioAssay (NCI).
Where “and” joins values, the source holds several entries; their conditions need not be identical. Equal values may be shown once.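 A five-concentration, 48-hour dose response in 96-well plates underlies each endpoint, interpolated linearly between surrounding concentrations. GI50 = concentration required for 50% inhibition of growth. The concentration for full growth arrest is given as TGI.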

Columns and labels:
Test in all cases: growth of human tumour cells (NCI), 48 h
786-0 renal = tested on: 786-0 renal
HOP-62 NSCLC = tested on: HOP-62 NSCLC
HT29 colon = tested on: HT29 colon
U251 CNS = tested on: U251 CNS
LXFL 529 NSCLC = tested on: LXFL 529 NSCLC
OVCAR-3 ovarian = tested on: OVCAR-3 ovarian
NCI-H23 lung = tested on: NCI-H23 lung
SK-MEL-28 melanoma = tested on: SK-MEL-28 melanoma
OVCAR-8 ovarian = tested on: OVCAR-8 ovarian
HCT-116 colon = tested on: HCT-116 colon
OVCAR-5 ovarian = tested on: OVCAR-5 ovarian
COLO 205 colon = tested on: COLO 205 colon
NCI-H522 lung = tested on: NCI-H522 lung
SW-620 colon = tested on: SW-620 colon
UO-31 renal = tested on: UO-31 renal
A498 renal = tested on: A498 renal
HOP-92 NSCLC = tested on: HOP-92 NSCLC
SNB-78 CNS = tested on: SNB-78 CNS
LOX IMVI melanoma = tested on: LOX IMVI melanoma
SK-OV-3 ovarian = tested on: SK-OV-3 ovarian
SK-MEL-5 melanoma = tested on: SK-MEL-5 melanoma
KM20L2 colon = tested on: KM20L2 colon
TK-10 renal = tested on: TK-10 renal
SNB-75 CNS = tested on: SNB-75 CNS
OVCAR-4 ovarian = tested on: OVCAR-4 ovarian
RPMI-8226 leukemia = tested on: RPMI-8226 leukemia
UACC-257 melanoma = tested on: UACC-257 melanoma
CCRF-CEM leukemia = tested on: CCRF-CEM leukemia
DMS 114 small cell lung = tested on: DMS 114 small cell lung
MOLT-4 leukemia = tested on: MOLT-4 leukemia
ACHN renal = tested on: ACHN renal
UACC-62 melanoma = tested on: UACC-62 melanoma
KM12 colon = tested on: KM12 colon
SF-268 CNS = tested on: SF-268 CNS
EKVX NSCLC = tested on: EKVX NSCLC
SN12C renal = tested on: SN12C renal
HL-60(TB) leukemia = tested on: HL-60(TB) leukemia
SNB-19 CNS = tested on: SNB-19 CNS
M14 melanoma = tested on: M14 melanoma
DLD-1 colon = tested on: DLD-1 colon
MALME-3M melanoma = tested on: MALME-3M melanoma
K-562 leukemia = tested on: K-562 leukemia
IGROV1 ovarian = tested on: IGROV1 ovarian
HCT-15 colon = tested on: HCT-15 colon
NCI-H460 lung = tested on: NCI-H460 lung
SK-MEL-2 melanoma = tested on: SK-MEL-2 melanoma
SF-295 CNS = tested on: SF-295 CNS
A549 NSCLC = tested on: A549 NSCLC
M19-MEL melanoma = tested on: M19-MEL melanoma
SF-539 CNS = tested on: SF-539 CNS
SR leukemia = tested on: SR leukemia
CAKI-1 renal = tested on: CAKI-1 renal
RXF 393 renal = tested on: RXF 393 renal
NCI-H226 lung = tested on: NCI-H226 lung
HCC-2998 colon = tested on: HCC-2998 colon
HOP-18 NSCLC = tested on: HOP-18 NSCLC

SMILES: NCCN.O=C([O-])[O-].O=C([O-])[O-].[Co+3].[K+]
- GI50 (786-0 renal): > 100 µM
- TGI (786-0 renal): > 100 µM
- GI50 (HOP-62 NSCLC): > 100 µM
- TGI (HOP-62 NSCLC): > 100 µM
- GI50 (HT29 colon): > 100 µM
- TGI (HT29 colon): > 100 µM
- GI50 (U251 CNS): > 100 µM
- TGI (U251 CNS): > 100 µM
- GI50 (LXFL 529 NSCLC): > 100 µM
- TGI (LXFL 529 NSCLC): > 100 µM
- GI50 (OVCAR-3 ovarian): > 100 µM
- TGI (OVCAR-3 ovarian): > 100 µM
- GI50 (NCI-H23 lung): > 100 µM
- TGI (NCI-H23 lung): > 100 µM
- GI50 (SK-MEL-28 melanoma): > 100 µM
- TGI (SK-MEL-28 melanoma): > 100 µM
- GI50 (OVCAR-8 ovarian): > 100 µM
- TGI (OVCAR-8 ovarian): > 100 µM
- GI50 (HCT-116 colon): > 100 µM
- TGI (HCT-116 colon): > 100 µM
- GI50 (OVCAR-5 ovarian): > 100 µM
- TGI (OVCAR-5 ovarian): > 100 µM
- GI50 (COLO 205 colon): > 100 µM
- TGI (COLO 205 colon): > 100 µM
- GI50 (NCI-H522 lung): > 100 µM
- TGI (NCI-H522 lung): > 100 µM
- GI50 (SW-620 colon): > 100 µM
- TGI (SW-620 colon): > 100 µM
- GI50 (UO-31 renal): > 100 µM
- TGI (UO-31 renal): > 100 µM
- GI50 (A498 renal): > 100 µM
- TGI (A498 renal): > 100 µM
- GI50 (HOP-92 NSCLC): 49.4 µM and 75.2 µM
- TGI (HOP-92 NSCLC): > 100 µM
- GI50 (SNB-78 CNS): > 100 µM
- TGI (SNB-78 CNS): > 100 µM
- GI50 (LOX IMVI melanoma): > 100 µM
- TGI (LOX IMVI melanoma): > 100 µM
- GI50 (SK-OV-3 ovarian): > 100 µM
- TGI (SK-OV-3 ovarian): > 100 µM
- GI50 (SK-MEL-5 melanoma): > 100 µM
- TGI (SK-MEL-5 melanoma): > 100 µM
- GI50 (KM20L2 colon): > 100 µM
- TGI (KM20L2 colon): > 100 µM
- GI50 (TK-10 renal): > 100 µM
- TGI (TK-10 renal): > 100 µM
- GI50 (SNB-75 CNS): > 100 µM and 72.3 µM
- TGI (SNB-75 CNS): > 100 µM
- GI50 (OVCAR-4 ovarian): > 100 µM
- TGI (OVCAR-4 ovarian): > 100 µM
- GI50 (RPMI-8226 leukemia): > 100 µM
- TGI (RPMI-8226 leukemia): > 100 µM
- GI50 (UACC-257 melanoma): > 100 µM
- TGI (UACC-257 melanoma): > 100 µM
- GI50 (CCRF-CEM leukemia): > 100 µM
- TGI (CCRF-CEM leukemia): > 100 µM
- GI50 (DMS 114 small cell lung): > 100 µM
- TGI (DMS 114 small cell lung): > 100 µM
- GI50 (MOLT-4 leukemia): > 100 µM
- TGI (MOLT-4 leukemia): > 100 µM
- GI50 (ACHN renal): > 100 µM
- TGI (ACHN renal): > 100 µM
- GI50 (UACC-62 melanoma): > 100 µM
- TGI (UACC-62 melanoma): > 100 µM
- GI50 (KM12 colon): > 100 µM
- TGI (KM12 colon): > 100 µM
- GI50 (SF-268 CNS): > 100 µM
- TGI (SF-268 CNS): > 100 µM
- GI50 (EKVX NSCLC): > 100 µM
- TGI (EKVX NSCLC): > 100 µM
- GI50 (SN12C renal): > 100 µM
- TGI (SN12C renal): > 100 µM
- GI50 (HL-60(TB) leukemia): > 100 µM
- TGI (HL-60(TB) leukemia): > 100 µM
- GI50 (SNB-19 CNS): > 100 µM
- TGI (SNB-19 CNS): > 100 µM
- GI50 (M14 melanoma): > 100 µM
- TGI (M14 melanoma): > 100 µM
- GI50 (DLD-1 colon): > 100 µM
- TGI (DLD-1 colon): > 100 µM
- GI50 (MALME-3M melanoma): > 100 µM
- TGI (MALME-3M melanoma): > 100 µM
- GI50 (K-562 leukemia): > 100 µM
- TGI (K-562 leukemia): > 100 µM
- GI50 (IGROV1 ovarian): > 100 µM
- TGI (IGROV1 ovarian): > 100 µM
- GI50 (HCT-15 colon): > 100 µM
- TGI (HCT-15 colon): > 100 µM
- GI50 (NCI-H460 lung): > 100 µM
- TGI (NCI-H460 lung): > 100 µM
- GI50 (SK-MEL-2 melanoma): > 100 µM
- TGI (SK-MEL-2 melanoma): > 100 µM
- GI50 (SF-295 CNS): > 100 µM
- TGI (SF-295 CNS): > 100 µM
- GI50 (A549 NSCLC): > 100 µM
- TGI (A549 NSCLC): > 100 µM
- GI50 (M19-MEL melanoma): > 100 µM
- TGI (M19-MEL melanoma): > 100 µM
- GI50 (SF-539 CNS): > 100 µM
- TGI (SF-539 CNS): > 100 µM

SMILES: COc1ccc(/C=N/N=C(\N)NO)c(OC)c1C
- TGI (786-0 renal): 67.7 µM
- TGI (HOP-62 NSCLC): 36.7 µM
- TGI (HT29 colon): > 100 µM
- TGI (U251 CNS): > 100 µM
- TGI (LXFL 529 NSCLC): > 100 µM
- TGI (OVCAR-3 ovarian): > 100 µM
- TGI (NCI-H23 lung): 60.6 µM
- TGI (SK-MEL-28 melanoma): > 100 µM
- TGI (OVCAR-8 ovarian): > 100 µM
- TGI (HCT-116 colon): > 100 µM
- TGI (OVCAR-5 ovarian): 7.69 µM
- TGI (COLO 205 colon): 30.7 µM
- TGI (NCI-H522 lung): 26.4 µM
- TGI (SW-620 colon): > 100 µM
- TGI (UO-31 renal): 31.7 µM
- TGI (A498 renal): 87.6 µM
- TGI (HOP-92 NSCLC): 72.5 µM
- TGI (SNB-78 CNS): > 100 µM
- TGI (SR leukemia): > 100 µM
- TGI (LOX IMVI melanoma): > 100 µM
- TGI (SK-OV-3 ovarian): > 100 µM
- TGI (OVCAR-4 ovarian): > 100 µM
- TGI (RPMI-8226 leukemia): > 100 µM
- TGI (UACC-257 melanoma): > 100 µM
- TGI (CCRF-CEM leukemia): > 100 µM
- TGI (DMS 114 small cell lung): 71.9 µM
- TGI (MOLT-4 leukemia): > 100 µM
- TGI (ACHN renal): 43.1 µM
- TGI (CAKI-1 renal): 46.4 µM
- TGI (RXF 393 renal): 69.8 µM
- TGI (NCI-H226 lung): 49.5 µM
- TGI (UACC-62 melanoma): > 100 µM
- TGI (KM12 colon): > 100 µM
- TGI (HCC-2998 colon): 22.1 µM
- TGI (SF-268 CNS): > 100 µM
- TGI (EKVX NSCLC): 41.9 µM
- TGI (HOP-18 NSCLC): 60.6 µM
- TGI (SN12C renal): > 100 µM
- TGI (SNB-19 CNS): > 100 µM
- TGI (DLD-1 colon): > 100 µM
- TGI (MALME-3M melanoma): 35.2 µM
- TGI (K-562 leukemia): > 100 µM
- TGI (IGROV1 ovarian): > 100 µM
- TGI (HCT-15 colon): > 100 µM
- TGI (NCI-H460 lung): > 100 µM
- TGI (SK-MEL-2 melanoma): 70.6 µM
- TGI (SF-295 CNS): > 100 µM
- TGI (A549 NSCLC): 44.9 µM
- TGI (SF-539 CNS): 54.1 µM
